Laboratory results from US7884199B2, “HCV NS3-NS4 protease resistance mutants” (priority 2003, dated 2011).
pIC50, pKi: −log10 of the molar value. Like-named read-outs stand apart in the source and are kept apart here.

Tests used:
[1] = target: wild type HCV NS3 serine protease domain, genotype 1b (Hepatitis C virus genotype 1b, UniProt Q9WMX2); assay: biochemical
[2] = target: T1, A156S mutant HCV NS3 serine protease domain (Hepatitis C virus genotype 1b, UniProt Q9WMX2, A1182S); assay: FRET enzyme assay, Ki; format: biochemical
T1 construct: A DNA fragment encoding residues Ala^1-Ser^181 of the HCV NS3 protease (GenBank CAB46913); hexa-histidine (C); made in house; host or cells: E. coli BL21/DE3 pLysS

[3] = target: T2, D168V mutant HCV NS3 serine protease domain (Hepatitis C virus genotype 1b, UniProt Q9WMX2, D1194V); assay: FRET enzyme assay, Ki; format: biochemical
T2 construct: A DNA fragment encoding residues Ala^1-Ser^181 of the HCV NS3 protease (GenBank CAB46913); hexa-histidine (C); made in house; host or cells: E. coli BL21/DE3 pLysS

[4] = target: T3, D168A mutant HCV NS3 serine protease domain (Hepatitis C virus genotype 1b, UniProt Q9WMX2, D1194A); assay: FRET enzyme assay, Ki; format: biochemical
T3 construct: A DNA fragment encoding residues Ala^1-Ser^181 of the HCV NS3 protease (GenBank CAB46913); hexa-histidine (C); made in house; host or cells: E. coli BL21/DE3 pLysS

[5] = target: T4, A156T mutant HCV NS3 serine protease domain (Hepatitis C virus genotype 1b, UniProt Q9WMX2, A1182T); assay: FRET enzyme assay, Ki; format: biochemical
T4 construct: A DNA fragment encoding residues Ala^1-Ser^181 of the HCV NS3 protease (GenBank CAB46913); hexa-histidine (C); made in house; host or cells: E. coli

[6] = target: T5, A156V mutant HCV NS3 serine protease domain (Hepatitis C virus genotype 1b, UniProt Q9WMX2, A1182V); assay: FRET enzyme assay, Ki; format: biochemical
T5 construct: A DNA fragment encoding residues Ala^1-Ser^181 of the HCV NS3 protease (GenBank CAB46913); hexa-histidine (C); made in house; host or cells: E. coli

[7] = system: wild-type HCV Con1 sub-genomic replicon cells; assay: HCV replicon cell assay, 48-hour; format: cell-based, Hepatitis C virus; details: Hepatitis C virus, 48-hour assay
Experimental: (§1) Cells containing hepatitis C virus (HCV) replicon were maintained in DMEM containing 10% fetal bovine serum (FBS), 0.25 mg per ml of G418, with appropriate supplements (media A).
(§2) On day 1, replicon cell monolayer was treated with a trypsin:EDTA mixture, removed, and then media A was diluted into a final concentration of 100,000 cells per ml with. 10,000 cells in 100 ul were plated into each well of a 96-well tissue culture plate, and cultured overnight in a tissue culture incubator at 37° C.
On day 2, compounds (in 100% DMSO) were serially diluted into DMEM containing 2% FBS, 0.5% DMSO, with appropriate supplements (media B). […]
(§3) A Taqman real-time RT-PCR quantification assay was set up with two sets of specific primers and probe. […] Total RNA extractants from treated HCV replicon cells was added to the PCR reactions for quantification of both HCV and BVDV RNA in the same PCR well. […] The level of HCV RNA in each well was calculated according to a standard curve run in the same PCR plate. The percentage of inhibition or decrease of HCV RNA level due to compound treatment was calculated using the DMSO or no compound control as 0% of inhibition. The cytotoxicity of the compounds was measured using a mitochondrial enzyme-based cell viability assay, CellTiter 96 AQueous One Solution Cell Proliferation Assay (Promega).

[8] = system: wild type HCV replicon cells (high efficiency Con1 replicon); assay: HCV replicon cell assay, 48-hour; format: cell-based, Hepatitis C virus; details: 48-hour assay, HCV RNA level, read-out: Replicon IC50
Source text: (§4) During the course of generating of the HCV sub-genomic replicon stable cell lines, several different patterns of adaptive mutations were identified. One pattern has three substitutions in the HCV nonstructural proteins, which were introduced into the original pBR322-HCV-Neo plasmid by site-directed mutagenesis to generate the second-generation sub-genomic replicon plasmid, pBR322-HCV-Neo-mADE. When the T7 run-offRNA transcripts from the Sca I-linearized pBR322-HCV-Neo-mADE plasmid were electroporated into Huh7 cells, stable replicon cell colonies were formed at a much higher efficiency than the original Con1 replicon RNA. The resistance mutations identified in this study were introduced into the pBR322-HCV-Neo-mADE replicon plasmid by site-directed mutagenesis. Stable replicon cell lines were generated using the T7 transcripts derived from either wild type pBR322-HCV-Neo-mADE or the ones with the resistance mutations.
as §1
On day 1, replicon cell monolayer was treated with a trypsin:EDTA mixture, removed, and then media A was diluted into a final concentration of 100,000 cells per ml with. […]
as §3, with “(Promega). […]” for “(Promega).”

A156S HCV replicon cells = assay: HCV replicon cell assay, 48-hour; format: cell-based, Hepatitis C virus
Source text: as §4, §1, §2
(§5) On day 2, compounds (in 100% DMSO) were serially diluted into DMEM containing 2% FBS, 0.5% DMSO, with appropriate supplements (media B). The final concentration of DMSO was maintained at 0.5% throughout the dilution series.
(§6) Media on the replicon cell monolayer was removed, and then media B containing various concentrations of compounds was added. Media B without any compound was added to other wells as no compound controls.
(§7) Cells were incubated with compound or 0.5% DMSO in media B for 48 hours in a tissue culture incubator at 37° C. At the end of the 48-hour incubation, the media was removed, and the replicon cell monolayer was washed once with PBS and stored at −80° C. prior to RNA extraction.
(§8) Culture plates with treated replicon cell monolayers were thawed, and a fixed amount of another RNA virus, such as Bovine Viral Diarrhea Virus (BVDV) was added to cells in each well. RNA extraction reagents (such as reagents from RNeasy kits) were added to the cells immediately to avoid degradation of RNA. Total RNA was extracted according the instruction of manufacturer with modification to improve extraction efficiency and consistency. Finally, total cellular RNA, including HCV replicon RNA, was eluted and stored at −80° C. until further processing.
(§9) A Taqman real-time RT-PCR quantification assay was set up with two sets of specific primers and probe. One was for HCV and the other was for BVDV. Total RNA extractants from treated HCV replicon cells was added to the PCR reactions for quantification of both HCV and BVDV RNA in the same PCR well. Experimental failure was flagged and rejected based on the level of BVDV RNA in each well. The level of HCV RNA in each well was calculated according to a standard curve run in the same PCR plate. The percentage of inhibition or decrease of HCV RNA level due to compound treatment was calculated using the DMSO or no compound control as 0% of inhibition. The cytotoxicity of the compounds was measured using a mitochondrial enzyme-based cell viability assay, CellTiter 96 AQueous One Solution Cell Proliferation Assay (Promega).
(§10) Four HCV sub-genomic replicon stable cell lines, including the wild type (wt), and three mutants, A156S, D168V and D168A, were generated using the T7 RNA runoff transcripts from the corresponding high efficiency Con1 replicon plasmids.

D168A HCV replicon cells = assay: HCV replicon cell assay, 48-hour; format: cell-based, Hepatitis C virus; details: Hepatitis C virus, 48-hour assay
Source text: as §4, §1, §2, §5, §6, §7, §8, §9, §10

D168V HCV replicon cells = assay: HCV replicon cell assay, 48-hour; format: cell-based, Hepatitis C virus; details: Hepatitis C virus, 48 h, read-out: Replicon IC50
Source text: as §4, §1, §2, §5, §6, §7, §8, §9, §10

A156T HCV replicon cells = assay: HCV replicon cell assay, 48-hour; format: cell-based, Hepatitis C virus
Source text: as §4, §1, §2, §5, §6, §7, §8, §9
(§11) Table 6 summary: Three HCV sub-genomic replicon stable cell lines, including the wild-type, and two mutants, A156T and A156V, were generated using the T7 RNA runoff transcripts from the corresponding high efficiency Con 1 replicon plasmids.

A156V HCV replicon cells = assay: HCV replicon cell assay, 48-hour; format: cell-based, Hepatitis C virus
Source text: as §4, §1, §2, §5, §6, §7, §8, §9, §11

[9] = system: series A (VX-950-resistant) replicon cells; assay: HCV replicon cell assay, 48-hour; format: cell-based, Hepatitis C virus; details: Hepatitis C virus; series A replicon cells at day 56
[10] = system: series B (BILN 2061-resistant) replicon cells; assay: HCV replicon cell assay, 48-hour; format: cell-based; details: Hepatitis C virus
[11] = system: series C (double-resistant) replicon cells; assay: HCV replicon cell assay, 48-hour; format: cell-based, Hepatitis C virus; details: 30 μM VX-950, series C replicon cells at day 52
[12] = system: series D (double-resistant) replicon cells; assay: HCV replicon cell assay, 48-hour; format: cell-based, Hepatitis C virus
[13] = Hepatitis C virus, 48-hour assay

Question: `CCC[C@H](NC(=O)C1[C@H]2CCC[C@H]2CN1C(=O)[C@@H](NC(=O)[C@@H](NC(=O)c1cnccn1)C1CCCCC1)C(C)(C)C)C(=O)C(=O)NC1CC1` (some centres unmarked) [VX-950] was tested. Which pKi [1] did it give?
Answer: The pKi was 7.00.

Question: And the pKi [2]?
Answer: The pKi was 5.54.

Question: What about the “Ki higher than against the wild type protease” value [2] of the same molecule?
Answer: Its value is 29 fold.

Question: And the pKi [3]?
Answer: The pKi was 7.37.

Question: And the pKi [4]?
Answer: The pKi was 6.82.

Question: And the pKi [5]?
Answer: Its pKi is 5.00.

Question: And the pKi [6]?
Answer: The pKi was 4.48.

Question: And the pIC50 [7]?
Answer: The pIC50 was 6.45.

Question: What about the pIC50 [8] of the same molecule?
Answer: Its pIC50 is 6.40.

Question: What about the pIC50 ([8]; Hepatitis C virus, 48 h) of the same molecule?
Answer: The pIC50 was 6.40.

Question: And the pIC50 (A156S HCV replicon cells; Hepatitis C virus)?
Answer: The pIC50 was 5.33.

Question: And the pIC50 (A156S HCV replicon cells; Hepatitis C virus, 48 h, 48-hour assay, read-out: Replicon IC50)?
Answer: Its pIC50 is 5.33.

Question: And the pIC50 (A156S HCV replicon cells; read-out: Replicon IC50, 48-hour assay)?
Answer: The pIC50 was 5.29.

Question: What about the pIC50 (D168A HCV replicon cells) of the same molecule?
Answer: The pIC50 was 6.71.

Question: What about the pIC50 (D168V HCV replicon cells) of the same molecule?
Answer: The pIC50 was 6.79.

Question: And the “decrease in sensitivity conferred by the mutation” value (A156T HCV replicon cells)?
Answer: The value was “at least 75 fold”.

Question: What about the pIC50 (A156T HCV replicon cells; [13]) of the same molecule?
Answer: The pIC50 was < 4.52.

Question: What about the “reduction of HCV replicon RNA” value (A156T HCV replicon cells; up to 30 μM VX-950) of the same molecule?
Answer: The value was “No significant reduction”.

Question: And the “decrease in sensitivity conferred by the mutation” value (A156V HCV replicon cells)?
Answer: Its value is “at least 75 fold”.

Question: What about the pIC50 (A156V HCV replicon cells; [13]) of the same molecule?
Answer: Its pIC50 is < 4.52.

Question: What about the “reduction of HCV replicon RNA” value (A156V HCV replicon cells; up to 30 μM VX-950) of the same molecule?
Answer: The value was “No significant reduction”.

Question: And the pIC50 [9]?
Answer: The pIC50 was 4.92 to 5.09.

Question: And the pIC50 [10]?
Answer: Its pIC50 is ~6.52.

Question: What about the “reduction of HCV RNA” value [11] of the same molecule?
Answer: The value was ≤ 50%.

Question: And the “reduction of HCV RNA” value ([12]; 30 μM VX-950, series D replicon cells at day 52)?
Answer: Its value is ≤ 50%.

Question: And the “IC50 higher than against the series B replicon cells” value ([12]; series D replicon cells at day 52)?
Answer: Its value is “more than 100 fold”.
